The compounds below were run against Human immunodeficiency virus type 1 reverse transcriptase (Human immunodeficiency virus 1, UniProt Q72547) (assay: Inhibition of HIV-1 reverse transcriptase.).
Compound CC(C)=CCN1Cc2cccc3nc(O)n(c23)C[C@@H]1C has an IC50 of 3160 nM.
Compound CC(C)=CCN1Cc2c(C#N)ccc3[nH]c(=O)n(c23)C[C@@H]1C has an IC50 of 1140 nM.
CC(C)=CCN1Cc2cc(Cl)cc3[nH]c(=S)n(c23)C[C@@H]1C showed an IC50 of 34 nM.
Compound C#Cc1ccc2[nH]c(=O)n3c2c1CN(CC=C(C)C)[C@@H](C)C3 has an IC50 of 437 nM.
COc1ccc2[nH]c(=S)n3c2c1CN(CC=C(C)C)[C@@H](C)C3 was tested, and the IC50 was 33.9 nM.
CC(C)=CCN1Cc2cccc3[nH]c(=S)n(c23)C[C@@H]1C was tested, and the IC50 was 44 nM.
Compound CC(C)=CCN1Cc2c(F)ccc3[nH]c(=S)n(c23)C[C@@H]1C has an IC50 of 5.8 nM.
With CC(C)=CCN1Cc2c(C)ccc3[nH]c(=O)n(c23)C[C@@H]1C the IC50 was 989 nM.
In the case of CC(C)=CCN1Cc2c(C#N)ccc3[nH]c(=S)n(c23)C[C@@H]1C, the IC50 is reported as 56.3 nM.
C#Cc1ccc2[nH]c(=S)n3c2c1CN(CC=C(C)C)[C@@H](C)C3 gave an IC50 of 29.5 nM.
CC(C)=CCN1Cc2c(C)ccc3[nH]c(=S)n(c23)C[C@@H]1C gave an IC50 of 13.6 nM.
For CC(C)=CCN1Cc2c(Cl)ccc3[nH]c(=S)n(c23)C[C@@H]1C [TIVIRAPINE], the IC50 was 4.3 nM.

Reference: ChEMBL document CHEMBL1131439, “Prediction of binding affinities for TIBO inhibitors of HIV-1 reverse transcriptase using Monte Carlo simulations in a linear response method” (J Med Chem, 1998)
